Results as given in ChEMBL document CHEMBL1201862, “PubChem BioAssay data set” (2004).
The source made the active and inactive calls.

Tests used:
[1] = IC50 of Artemis nuclease activity blockers – biochemical, fluorescence intensity, dose response (AID 720701); assay type: functional;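 also: Artemis endonuclease enzyme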
[2] = bead-based luminescence quenchers, dual-tagged ARNT – biochemical, AlphaScreen, cherry-pick, artefact control for ARNT-TACC3 interaction inhibitor project, dose response (AID 651705); assay type: functional;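 also: AlphaScreen bead proximity signal that flags compounds interfering with the detection technology; potency reflects signal decrease which marks the compound as an assay artifact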
[3] = target: Hepatocyte nuclear factor 4-alpha (Homo sapiens, UniProt P41235); assay type: functional, cell-based;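 also: biochemical luminescence-based dose-response counterscreen measuring inhibition of HNF4 dimerization, run alongside a screen for blockers of ABHD5–perilipin-5 interaction; split luciferase complementation of HNF4 fusion proteins in cell lysate measuring dimerization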
Sequence of Hepatocyte nuclear factor 4-alpha (P41235 whole entry, the tested form may be a part): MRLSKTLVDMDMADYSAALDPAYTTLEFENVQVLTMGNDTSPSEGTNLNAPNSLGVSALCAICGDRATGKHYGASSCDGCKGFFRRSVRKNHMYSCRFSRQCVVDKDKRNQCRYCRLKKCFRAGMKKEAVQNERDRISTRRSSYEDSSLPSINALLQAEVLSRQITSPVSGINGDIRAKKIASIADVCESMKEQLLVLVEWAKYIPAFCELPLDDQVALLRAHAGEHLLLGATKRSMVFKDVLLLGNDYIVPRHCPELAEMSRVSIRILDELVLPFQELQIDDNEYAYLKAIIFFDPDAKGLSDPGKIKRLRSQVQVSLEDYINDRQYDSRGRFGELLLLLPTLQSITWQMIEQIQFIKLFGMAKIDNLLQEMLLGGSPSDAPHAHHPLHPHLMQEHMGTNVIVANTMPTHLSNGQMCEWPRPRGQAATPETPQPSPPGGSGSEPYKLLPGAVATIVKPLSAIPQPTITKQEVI

[4] = target: T1, Heat shock factor protein 1 (Mus musculus, UniProt P38532); assay: enhancement of HSF1-driven luciferase signal – cell-based, NIH3T3, luminescence, dose retest, confirmation (AID 435004); assay type: functional;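 also: stress induced by proteasome inhibitor MG132 added 30 min after compound; luciferase reporter driven by HSF1 response element in NIH3T3 cells; actives raise luminescence as potentiators of the MG132 stress response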
T1 sequence (P38532 whole entry): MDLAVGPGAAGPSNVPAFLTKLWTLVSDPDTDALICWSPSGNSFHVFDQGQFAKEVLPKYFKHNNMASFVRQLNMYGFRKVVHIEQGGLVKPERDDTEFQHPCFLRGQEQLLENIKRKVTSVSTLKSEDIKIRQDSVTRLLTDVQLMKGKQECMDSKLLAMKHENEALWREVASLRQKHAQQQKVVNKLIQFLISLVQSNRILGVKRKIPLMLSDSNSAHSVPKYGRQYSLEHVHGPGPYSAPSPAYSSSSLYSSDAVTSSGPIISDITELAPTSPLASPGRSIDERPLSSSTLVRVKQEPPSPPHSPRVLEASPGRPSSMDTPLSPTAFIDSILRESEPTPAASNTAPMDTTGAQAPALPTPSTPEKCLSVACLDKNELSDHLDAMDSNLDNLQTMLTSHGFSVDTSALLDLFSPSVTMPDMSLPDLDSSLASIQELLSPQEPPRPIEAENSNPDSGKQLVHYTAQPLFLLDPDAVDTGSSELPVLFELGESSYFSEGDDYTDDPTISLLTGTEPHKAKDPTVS

Mucolipin-3 = Mucolipin-3 (Homo sapiens, UniProt Q8TDD5); assay: Dose response cell-based high-throughput screening assay for agonists of the transient receptor potential channel ML3 (TRPML3). [Related pubchem assays: 1526, 1424, 1448 ]; assay type: functional
Sequence of Mucolipin-3 (Q8TDD5 whole entry): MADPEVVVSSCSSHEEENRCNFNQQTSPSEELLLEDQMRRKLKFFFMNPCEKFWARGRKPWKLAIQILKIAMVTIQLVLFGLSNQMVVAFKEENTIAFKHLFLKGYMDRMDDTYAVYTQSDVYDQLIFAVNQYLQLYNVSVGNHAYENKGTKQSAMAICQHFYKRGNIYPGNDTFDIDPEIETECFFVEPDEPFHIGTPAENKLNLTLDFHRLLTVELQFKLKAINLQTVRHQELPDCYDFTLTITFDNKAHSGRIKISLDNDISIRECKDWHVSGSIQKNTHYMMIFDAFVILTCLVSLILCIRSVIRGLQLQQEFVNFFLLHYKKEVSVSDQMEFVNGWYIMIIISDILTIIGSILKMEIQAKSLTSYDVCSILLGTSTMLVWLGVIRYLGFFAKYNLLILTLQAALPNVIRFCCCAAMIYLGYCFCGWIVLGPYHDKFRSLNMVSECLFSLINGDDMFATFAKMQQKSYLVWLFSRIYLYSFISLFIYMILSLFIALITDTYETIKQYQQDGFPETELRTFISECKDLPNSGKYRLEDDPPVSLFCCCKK

Ion channel NompC = Ion channel NompC (Danio rerio, UniProt Q7T1G6); assay: Fluorescence counterscreen assay for TRPML3 agonists: dose response cell-based high-throughput screening assay to identify agonists of the transient receptor potential channel N1 (TRPN1). [Related pubchem assays: 1526, 1424, 1448 ]; assay type: functional
Sequence of Ion channel NompC (Q7T1G6 whole entry): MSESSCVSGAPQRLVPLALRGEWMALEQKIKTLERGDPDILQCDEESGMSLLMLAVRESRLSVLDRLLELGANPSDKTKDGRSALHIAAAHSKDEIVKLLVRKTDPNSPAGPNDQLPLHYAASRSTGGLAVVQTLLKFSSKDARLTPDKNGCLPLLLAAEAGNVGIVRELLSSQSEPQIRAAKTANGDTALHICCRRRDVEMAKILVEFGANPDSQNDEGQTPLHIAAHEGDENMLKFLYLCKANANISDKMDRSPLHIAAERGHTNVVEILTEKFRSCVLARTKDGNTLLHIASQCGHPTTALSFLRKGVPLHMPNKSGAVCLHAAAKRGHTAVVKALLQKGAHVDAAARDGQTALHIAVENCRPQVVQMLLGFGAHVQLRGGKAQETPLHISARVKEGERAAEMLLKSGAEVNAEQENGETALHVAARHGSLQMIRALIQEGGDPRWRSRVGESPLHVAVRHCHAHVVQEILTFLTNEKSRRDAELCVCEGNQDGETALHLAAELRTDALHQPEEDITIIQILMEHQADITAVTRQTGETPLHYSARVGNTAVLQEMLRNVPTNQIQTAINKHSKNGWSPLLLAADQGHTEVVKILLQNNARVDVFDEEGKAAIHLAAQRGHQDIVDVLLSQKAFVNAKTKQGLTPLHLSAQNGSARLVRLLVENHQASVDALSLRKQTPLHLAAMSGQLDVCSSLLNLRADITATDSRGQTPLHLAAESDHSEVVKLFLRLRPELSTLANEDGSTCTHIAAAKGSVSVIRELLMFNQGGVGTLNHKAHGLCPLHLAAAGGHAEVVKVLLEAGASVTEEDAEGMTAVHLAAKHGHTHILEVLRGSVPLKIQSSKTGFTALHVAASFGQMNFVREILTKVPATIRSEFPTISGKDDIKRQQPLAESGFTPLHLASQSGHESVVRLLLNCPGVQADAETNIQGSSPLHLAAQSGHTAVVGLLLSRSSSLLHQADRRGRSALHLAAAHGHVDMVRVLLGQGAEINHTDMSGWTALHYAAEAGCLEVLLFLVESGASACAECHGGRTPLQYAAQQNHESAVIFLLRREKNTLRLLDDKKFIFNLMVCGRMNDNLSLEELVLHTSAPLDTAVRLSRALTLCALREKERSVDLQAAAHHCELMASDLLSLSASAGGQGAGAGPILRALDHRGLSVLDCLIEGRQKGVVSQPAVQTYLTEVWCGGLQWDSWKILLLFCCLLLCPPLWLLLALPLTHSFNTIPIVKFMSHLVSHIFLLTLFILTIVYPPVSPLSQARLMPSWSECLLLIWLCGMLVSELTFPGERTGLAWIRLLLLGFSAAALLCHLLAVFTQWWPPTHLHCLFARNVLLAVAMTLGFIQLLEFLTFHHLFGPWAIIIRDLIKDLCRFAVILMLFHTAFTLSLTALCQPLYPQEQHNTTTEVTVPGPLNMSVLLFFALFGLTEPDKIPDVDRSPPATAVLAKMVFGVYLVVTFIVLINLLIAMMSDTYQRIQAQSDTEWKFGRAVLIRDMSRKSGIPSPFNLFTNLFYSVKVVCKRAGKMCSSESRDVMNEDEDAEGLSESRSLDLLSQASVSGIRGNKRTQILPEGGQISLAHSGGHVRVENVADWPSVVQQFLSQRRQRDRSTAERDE

[5] = target: T2, Low molecular weight phosphotyrosine protein phosphatase (Homo sapiens, UniProt P24666); assay type: functional; conditions: read-out: IC50_Mean
T2 sequence (P24666 whole entry): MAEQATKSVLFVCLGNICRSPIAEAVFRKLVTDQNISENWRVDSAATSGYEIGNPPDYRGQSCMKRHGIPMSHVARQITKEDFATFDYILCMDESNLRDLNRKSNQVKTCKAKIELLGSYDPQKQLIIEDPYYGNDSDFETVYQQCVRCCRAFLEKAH

[6] = target: T2, Low molecular weight phosphotyrosine protein phosphatase; assay type: functional; conditions: read-out: IC50_Mean; remark: listed apart in the source
[7] = target: T3, Sentrin-specific protease 8 (Homo sapiens, UniProt Q96LD8); assay type: functional
T3 sequence (Q96LD8 whole entry): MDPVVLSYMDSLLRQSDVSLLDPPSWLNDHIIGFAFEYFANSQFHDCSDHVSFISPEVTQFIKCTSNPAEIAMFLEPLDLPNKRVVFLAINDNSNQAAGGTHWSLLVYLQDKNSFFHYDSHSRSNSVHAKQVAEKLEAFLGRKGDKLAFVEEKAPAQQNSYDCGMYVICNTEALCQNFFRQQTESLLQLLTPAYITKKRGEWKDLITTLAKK

[8] = target: T3, Sentrin-specific protease 8; assay type: functional; remark: listed apart in the source
[9] = target: T4, Mannose-6-phosphate isomerase (Homo sapiens, UniProt P34949); assay: MPI inhibition at elevated mannose 6-phosphate – biochemical, fluorescence intensity, high mannose 6-phosphate, primary screen (AID 1220)
T4 sequence (P34949 whole entry): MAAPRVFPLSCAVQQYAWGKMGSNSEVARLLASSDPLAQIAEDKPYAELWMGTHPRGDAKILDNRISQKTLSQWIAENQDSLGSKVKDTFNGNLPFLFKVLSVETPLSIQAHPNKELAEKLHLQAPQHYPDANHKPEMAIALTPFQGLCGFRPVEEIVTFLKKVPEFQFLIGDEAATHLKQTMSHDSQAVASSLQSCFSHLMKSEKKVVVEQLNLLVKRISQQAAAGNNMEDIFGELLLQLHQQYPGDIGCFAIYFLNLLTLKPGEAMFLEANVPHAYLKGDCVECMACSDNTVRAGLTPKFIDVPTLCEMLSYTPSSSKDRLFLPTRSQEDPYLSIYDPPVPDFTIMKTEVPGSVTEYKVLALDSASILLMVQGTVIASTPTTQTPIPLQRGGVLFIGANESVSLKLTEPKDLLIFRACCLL

[10] = target: T5, Small ubiquitin-related modifier 1 (Homo sapiens, UniProt P63165); assay: SUMO1 protein interaction blockers, potency – biochemical, fluorescence polarization, uHTS hits, dose response (AID 624382); assay type: functional; conditions: read-out: IC50_Mean
T5 sequence (P63165 whole entry): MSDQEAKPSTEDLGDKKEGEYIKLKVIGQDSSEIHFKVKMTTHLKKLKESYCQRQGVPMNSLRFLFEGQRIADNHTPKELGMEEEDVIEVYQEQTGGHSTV

[11] = target: T6, Rac GTPase-activating protein 1 (Homo sapiens, UniProt Q9H0H5); assay: blockers of MgcRacGAP-driven Rac1 GTP hydrolysis – biochemical, ADP Hunter fluorescence, primary and confirmatory, confirmation (AID 624330); assay type: functional
T6 sequence (Q9H0H5 whole entry): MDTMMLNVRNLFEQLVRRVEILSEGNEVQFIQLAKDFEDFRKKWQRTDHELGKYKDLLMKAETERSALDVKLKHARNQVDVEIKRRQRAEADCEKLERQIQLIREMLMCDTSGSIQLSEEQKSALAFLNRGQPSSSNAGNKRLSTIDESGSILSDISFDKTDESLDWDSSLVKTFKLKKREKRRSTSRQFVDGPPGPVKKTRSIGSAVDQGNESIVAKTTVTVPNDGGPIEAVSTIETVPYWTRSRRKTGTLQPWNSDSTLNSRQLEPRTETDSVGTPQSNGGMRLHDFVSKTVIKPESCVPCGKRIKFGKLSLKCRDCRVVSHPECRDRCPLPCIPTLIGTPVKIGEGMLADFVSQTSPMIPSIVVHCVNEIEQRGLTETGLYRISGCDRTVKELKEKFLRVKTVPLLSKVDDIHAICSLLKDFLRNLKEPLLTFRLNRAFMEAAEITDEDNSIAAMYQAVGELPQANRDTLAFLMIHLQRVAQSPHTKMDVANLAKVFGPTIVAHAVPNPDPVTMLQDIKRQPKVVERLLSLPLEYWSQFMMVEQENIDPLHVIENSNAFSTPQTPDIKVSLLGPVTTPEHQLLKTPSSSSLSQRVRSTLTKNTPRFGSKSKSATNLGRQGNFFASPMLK

P388 = assay: cells; assay type: functional; conditions: Mus musculus
[12] = target: T7, Aryl hydrocarbon receptor (Homo sapiens, UniProt P35869); conditions: Potency;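 also: confirmatory quantitative high-throughput screen measuring activation of the AhR signaling pathway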
T7 sequence (P35869 whole entry): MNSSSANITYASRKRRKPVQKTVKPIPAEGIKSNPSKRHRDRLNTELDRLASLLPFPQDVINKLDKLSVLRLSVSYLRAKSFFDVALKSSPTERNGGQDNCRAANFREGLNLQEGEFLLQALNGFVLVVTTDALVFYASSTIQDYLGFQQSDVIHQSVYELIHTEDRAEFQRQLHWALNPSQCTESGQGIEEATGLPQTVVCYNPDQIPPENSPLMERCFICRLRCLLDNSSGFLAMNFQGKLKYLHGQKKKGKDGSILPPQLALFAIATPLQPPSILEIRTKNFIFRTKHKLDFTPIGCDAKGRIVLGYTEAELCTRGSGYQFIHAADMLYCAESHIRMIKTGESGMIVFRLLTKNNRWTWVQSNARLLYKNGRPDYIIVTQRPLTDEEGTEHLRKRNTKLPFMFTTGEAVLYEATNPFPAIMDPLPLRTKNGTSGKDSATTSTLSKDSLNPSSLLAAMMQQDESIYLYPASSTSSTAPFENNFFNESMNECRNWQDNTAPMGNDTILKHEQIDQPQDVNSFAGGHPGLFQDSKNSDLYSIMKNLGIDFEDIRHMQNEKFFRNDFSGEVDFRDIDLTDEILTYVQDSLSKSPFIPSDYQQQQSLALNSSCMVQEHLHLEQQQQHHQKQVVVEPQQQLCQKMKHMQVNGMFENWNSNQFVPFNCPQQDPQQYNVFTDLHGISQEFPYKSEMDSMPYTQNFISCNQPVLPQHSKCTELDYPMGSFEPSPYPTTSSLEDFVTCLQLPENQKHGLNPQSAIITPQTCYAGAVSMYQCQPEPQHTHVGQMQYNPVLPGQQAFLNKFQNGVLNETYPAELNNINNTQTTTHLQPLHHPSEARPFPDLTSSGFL

P388/ADR = assay: cells; assay type: functional; conditions: Mus musculus
SN12K1 = assay: cells; assay type: functional; conditions: Homo sapiens
[13] = target: T5, Small ubiquitin-related modifier 1; assay: SUMO1 protein-protein binding blockers, potency – biochemical, FRET, dose response (AID 624383); assay type: functional; conditions: read-out: IC50_Mean

**Q.** For `C/C(CC(=O)Nc1ccc(N(C)C)cc1)=N\NC(=O)c1ccccn1`, which IC50 [1] is on record?
**A.** The IC50 was > 20 µM (inactive).

**Q.** What about the AC50 [2] of the same compound?
**A.** The AC50 was 78 µM (active).

**Q.** Which IC50 [3] does the source give for `O=C(NCc1ccccc1)C(C1CC1)n1c(=O)c(-c2ccco2)nc2ccccc21` (stereo not drawn) here?
**A.** Its IC50 is 6.09 µM (active).

**Q.** What does the source list for `O=C(O)c1csc(N/N=C/c2ccc(Br)cc2)n1`?
**A.** EC50 [4]: > 260 µM (inactive); EC50 (Mucolipin-3): > 29.9 µM (not active); EC50 (Ion channel NompC): > 29.9 µM (not active); IC50 [5]: > 80 µM (inactive); IC50 [6]: 47.3 µM (inactive)

**Q.** With `CC(C)(C)c1cc(=O)n(-c2ccccc2)[nH]1` as the compound, how does the IC50 [7] read?
**A.** The IC50 was 19.1 µM (active).

**Q.** What about the IC50 [8] of the same compound?
**A.** The IC50 was 7.95 µM (active).

**Q.** And the IC50 [9]?
**A.** Its IC50 is > 50 µM (not active).

**Q.** Which IC50 [10] does the source give for `O=c1oc2cc(O)ccc2c2oc3cc(O)ccc3c12` [COUMESTROL] here?
**A.** Its IC50 is > 66.6 µM (inactive).

**Q.** What about the IC50 [11] of the same compound?
**A.** Its IC50 is 32.3 µM (active).

**Q.** What about the GI50 (P388) of the same compound?
**A.** The GI50 was 27.4 µM (inactive).

**Q.** What about the AC50 [12] of the same compound?
**A.** The AC50 was 50.1 µM (inconclusive).

**Q.** And the GI50 (P388/ADR)?
**A.** The GI50 was 26.2 µM (inactive).

**Q.** And the GI50 (SN12K1)?
**A.** The GI50 was 50 µM (inactive).

**Q.** And the IC50 [13]?
**A.** Its IC50 is 14.7 µM (active).
